According to patent US8188148B2, “Substituted 1,3-diphenylpropane derivatives, preparations and uses thereof” (Genfit, priority 2006, dated 2012):

Assays:
[1] = tested on: PPARs target genes (PDK4, ApoCIII); test: Hepatic gene expression by quantitative RT-PCR in E2/E2 mouse; assay type: in vivo; conditions: E2/E2 mouse, 5, 10, and 50 mpk, 8 days, normalized to 36B4
Description: The effectiveness of the compounds according to the invention is also evaluated by measuring, in the hepatic tissue, the expression of genes involved in lipid and/or glucid metabolism and in energy dissipation. Each level of gene expression is normalized regarding the expression level of the reference gene 36B4. The induction factor, i.e. the ratio between the relative signal (induced by the compound according to the invention) and the average of the relative values obtained with the control group, is then calculated. The higher the induction factor is, the more the compound promotes hepatic gene expression. […]
The agonist properties of PPARα previously measured in vitro should, in the liver, lead to an over-expression of the target genes directly under the control of the PPARα. […]
Gene expression analysis by quantitative RT-PCR Total RNA is extracted from liver fragments by using a NucleoSpin® 96 RNA kit (Macherey Nagel, Hoerdt, France) according to the manufacturer's instructions.
1 μg of total RNA (quantified by using the Ribogreen RNA quantification kit (Molecular Probes)) is then reverse-transcribed into complementary DNA by means of a 1 hour reaction at 37° C. in a total volume of 20 μl containing a 1× buffer (Sigma), 1.5 mM of DTT, 0.18 mM of dNTPs (Promega), 200 ng of pdN6 (Amersham), 30 U of RNase inhibitor (Sigma), and 1 μl of MMLV-RT (Sigma). […]

[2] = tested on: PPARs target genes (PDK4, UCP2); test: Hepatic and skeletal muscle gene expression by quantitative RT-PCR in db/db mouse; assay type: in vivo; conditions: 50 mpk, 28 days
Description: The effectiveness of the compounds according to the invention is also evaluated by measuring, in the hepatic and muscular (skeletal) tissues, the expression of genes involved in lipid and/or glucid metabolism and in energy dissipation. Each level of gene expression is normalized regarding the expression level of the reference gene 36B4 in the hepatic tissue, or regarding the expression level of the reference gene 18S in the gastrocnemius skeletal muscle. The induction factor, i.e. the ratio between the relative signal (induced by the compound according to the invention) and the average of the relative values obtained with the control group, is then calculated. The higher the induction factor is, the more the greater the compound promotes gene expression. The final result is represented as the average of the induction values obtained with each experimental group. • FIG. 4-8: Expression of PDK4 in the hepatic tissue of the db/db mouse, after 28 days of treatment with compound 1 and compound 3, administered at 50 mpk • FIG. 4-9: Expression of UCP2 (uncoupling protein 2) in the skeletal muscle tissue of the db/db mouse, after 28 days of treatment with compound 1 and compound 3, administered at 50 mpk
Total RNA was extracted from liver fragments by using a NucleoSpin® 96 RNA kit (Macherey Nagel, Hoerdt, France) according to the manufacturer's instructions.
Total RNA was extracted from gastrocnemius skeletal muscle fragments by using a RNeasy® Fibrous Tissue kit (Qiagen) according to the manufacturer's instructions.
1 μg of total RNA (quantified by spectrophotometry) was then reverse-transcripted into complementary DNA by means of a 1 hour reaction at 37° C. in a total volume of 20 μl containing a 1× buffer (Sigma), 1.5 mM of DTT, 0.18 mM of dNTPs (Promega), 200 ng of pdN6 (Amersham), 30 U of RNase inhibitor (Sigma), and 1 μl of MMLV-RT (Sigma).
The PCR quantitative experiments were carried out using the MyiQ Single-Color Real-Time PCR Detection System (Biorad, Marnes-la-Coquette, France) and were performed using the iQ SYBR Green Supermix kit according to the provider's recommendations, in 96-well plates in 5 μl of a diluted reverse-transcription solution at a hybridization temperature of 55° C. The specific primer pairs of the genes being studied were used:
The amount of fluorescence emitted is directly proportional to the amount of complementary DNA present at the beginning of the reaction and amplified during the PCR. For each target studied, a range of solutions is performed with successive dilutions of mixtures of a few microliters of different reverse-transcription solutions. The relative levels of expression of each target are thus determined by using efficiency curves obtained with the points relative to the range of PCR solutions. […]

Cc1cc(CCC(=O)c2ccc(OC(F)(F)F)cc2)cc(C)c1OC(C)(C)C(=O)O [Compound 1, 2-[2,6-dimethyl-4-[3-[4-(trifluoromethyloxy)phenyl]-3-oxo-propyl]phenoxy]-2-methyl-propanoic acid]
hepatic expression of the gene coding for ApoCIII [1]: reduction
hepatic expression of the gene coding for PDK4 [1]: significant increase
expression of the gene coding for UCP2 in the skeletal muscle ([2]; gastrocnemius skeletal muscle): reduction
hepatic expression of the gene coding for PDK4 ([2]; hepatic tissue): significant increase
